Laboratory results reported in ChEMBL document CHEMBL1152952, “Synthesis and pharmacological evaluation of 1,2,3,4-tetrahydropyrazino[1,2-a]indole and 2-[(phenylmethylamino)methyl]-1H-indole analogues as novel melatoninergic ligands” (Bioorg Med Chem, 2009).
The source made the active and inactive calls. The rule behind the calls is not given here.

How the values were obtained:
[1] = target: T1, Melatonin receptor type 1B (Homo sapiens) (UniProt P49286); assay: Intrinsic activity at human MT2 receptor expressed in CHO cells assessed as inhibition of forskolin-induced cAMP accumulation at 10 nM; format: functional, cell-based
T1 sequence (whole entry): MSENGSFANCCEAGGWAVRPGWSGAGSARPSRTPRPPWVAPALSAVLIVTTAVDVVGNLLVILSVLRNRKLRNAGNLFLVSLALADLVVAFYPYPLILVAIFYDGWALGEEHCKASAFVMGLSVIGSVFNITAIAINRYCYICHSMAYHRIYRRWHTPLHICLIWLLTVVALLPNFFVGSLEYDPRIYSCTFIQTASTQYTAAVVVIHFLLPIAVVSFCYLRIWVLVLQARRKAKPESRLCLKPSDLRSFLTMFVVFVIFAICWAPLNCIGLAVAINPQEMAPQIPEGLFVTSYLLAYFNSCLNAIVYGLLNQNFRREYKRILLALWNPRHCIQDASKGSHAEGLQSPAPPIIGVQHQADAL

[2] = target: T2, Melatonin receptor type 1A (Homo sapiens, UniProt P48039); assay: Agonist activity at human MT1 receptor expressed in CHO cells assessed as inhibition of forskolin-induced cAMP accumulation at 1 uM; format: functional, cell-based
[3] = target: T3, Melatonin receptor type 1B (Homo sapiens, UniProt P49286); assay: Displacement of 2-[125I]iodomelatonin from human MT2 receptor expressed in CHO cells by gamma counting; format: cell-based
T3 sequence (P49286 whole entry): T1 sequence (whole entry)

Homo sapiens = species on record: Homo sapiens; assay: Selectivity ratio of Ki for human MT1 receptor to Ki for human MT2 receptor
[4] = target: T2, Melatonin receptor type 1A; assay: Displacement of 2-[125I]iodomelatonin from human MT1 receptor expressed in CHO cells by gamma counting; format: cell-based
[5] = target: T2, Melatonin receptor type 1A; assay: Agonist activity at human MT1 receptor expressed in CHO cells assessed as inhibition of forskolin-induced cAMP accumulation at 10 nM; format: functional, cell-based
[6] = target: T2, Melatonin receptor type 1A; assay: Agonist activity at human MT1 receptor expressed in CHO cells assessed as inhibition of forskolin-induced cAMP accumulation; format: functional, cell-based

T2 sequence (P48039 whole entry): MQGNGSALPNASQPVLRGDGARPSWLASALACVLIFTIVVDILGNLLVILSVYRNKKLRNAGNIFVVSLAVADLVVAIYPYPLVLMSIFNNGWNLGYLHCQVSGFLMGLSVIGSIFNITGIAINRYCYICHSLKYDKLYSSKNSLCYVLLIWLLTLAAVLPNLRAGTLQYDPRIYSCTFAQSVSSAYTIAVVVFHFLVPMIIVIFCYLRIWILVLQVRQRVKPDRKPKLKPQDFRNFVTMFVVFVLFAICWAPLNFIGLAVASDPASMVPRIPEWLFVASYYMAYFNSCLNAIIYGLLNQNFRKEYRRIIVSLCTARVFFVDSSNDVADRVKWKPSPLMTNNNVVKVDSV

With `COc1ccc2[nH]c(CN(C)c3ccccc3)c(CCNC(C)=O)c2c1` the Activity [1] was “inactive”, the inhibition [2] was 60% and the Ki ([3]; read-out: pKi (converted)) was 2.29 nM. The Ratio Ki (Homo sapiens) was 8 and the Ki ([4]; read-out: pKi (converted)) was 15.5 nM.
A Ratio Ki (Homo sapiens) of 4.4 was found for `COc1ccc2c(c1)CC1Cn3c(c(CCNC(C)=O)c4cc(OC)ccc43)CN21` (centres undefined) in this work.
A Ki ([3]; read-out: Ki) of 63 nM and a Ki ([4]; read-out: Ki) of 111 nM were found for `COc1ccc2[nH]c(CN(C)c3ccc(C(F)(F)F)cc3)c(CCNC(C)=O)c2c1` in this work.
A Ki ([3]; read-out: pKi (converted)) of 7.76 nM and a Ki ([4]; read-out: pKi (converted)) of 11.7 nM were found for `COc1ccc2c(c1)c(CCNC(C)=O)c1n2CCN(C)C1` in this work.
A Ki ([3]; read-out: Ki) of 9 nM and a Ki ([4]; read-out: Ki) of 8 nM were found for `COc1ccc(N(C)Cc2[nH]c3ccc(OC)cc3c2CCNC(C)=O)cc1` in this work.
A Ki ([3]; read-out: pKi (converted)) of 661 nM and a Ki ([4]; read-out: pKi (converted)) of 1290 nM were found for `COc1ccc2[nH]c(CN(C)Cc3ccccc3)c(CCNC(C)=O)c2c1` in this work.
A Ki ([3]; read-out: pKi (converted)) of 224 nM and a Ki ([4]; read-out: pKi (converted)) of 1000 nM were found for `CCN(C)Cc1[nH]c2ccc(OC)cc2c1CCNC(C)=O` in this work.
A Ki ([3]; read-out: pKi (converted)) of 891 nM, a Ratio Ki (Homo sapiens) of 6 and a Ki ([4]; read-out: pKi (converted)) of 5620 nM were found for `COc1ccc2c(c1)c(CCNC(C)=O)c1n2CCCN(C)C1` in this work.
A Ki ([3]; read-out: pKi (converted)) of 85.1 nM and a Ki ([4]; read-out: pKi (converted)) of 257 nM were found for `CCCC(=O)NCCc1c2n(c3ccccc13)CCN(C)C2` in this work.
With `CCCC(=O)NCCc1c2n(c3ccc(OC)cc13)CCN(C)C2` the Activity [1] was “inactive”, the inhibition [5] was 12% and the IC50 [6] was 3.14 nM. It also gave a Ki ([3]; read-out: pKi (converted)) of 6.92 nM and a Ki ([4]; read-out: pKi (converted)) of 6.61 nM.
A Ki ([3]; read-out: pKi (converted)) of 42.7 nM, a Ratio Ki (Homo sapiens) of 6 and a Ki ([4]; read-out: pKi (converted)) of 257 nM were found for `COc1ccc2[nH]c(CN(C)c3ccc(Cl)cc3)c(CCNC(C)=O)c2c1` in this work.
